{"source": "paper PMC7558399", "about": "“In Vitro Selective Growth-Inhibitory Activities of Phytochemicals, Synthetic Phytochemical Analogs, and Antibiotics against Diarrheagenic/Probiotic Bacteria and Cancer/Normal Intestinal Cells” (Pharmaceuticals, 2020)", "assay_type_in_all_cases": "cell-based", "key": {"[1]": {"test_system": "S. enterica ssp. enterica serovar Typhimurium (ATCC 14028)", "test": "Broth microdilution MIC, Salmonella Typhimurium", "details": "Salmonella Typhimurium, growth inhibited by ≥80%, read-out: MIC"}, "[2]": {"test_system": "Bacillus cereus (ATCC 14579)", "test": "Broth microdilution MIC, B. cereus", "details": "ATCC14579, growth inhibited by ≥80%, median/mode, read-out: MIC"}, "[3]": {"test_system": "Lactobacillus casei (DSMZ 20011)", "test": "Broth microdilution MIC, L. casei", "details": "Lacticaseibacillus casei, DSMZ20011; Lactobacillus casei; growth inhibited by ≥80%; read-out: MIC"}, "[4]": {"test_system": "Shigella flexneri (ATCC 12022)", "test": "microbe, parasite or virus in culture", "details": "ATCC12022"}, "[5]": {"test_system": "probiotic bacteria (9 strains)", "test": "Broth microdilution MIC, probiotic bacteria as a group (mean or range over strains)", "details": "mean of 9 strains; >512 replaced with 1024; read-out: x¯ -PB ± SD: mean MIC for probiotic bacteria"}, "[6]": {"test_system": "Lactobacillus reuteri (CCM 3625)", "test": "Broth microdilution MIC, L. reuteri", "details": "Limosilactobacillus reuteri, CCM3625; Lactobacillus reuteri; growth inhibited by ≥80%; read-out: MIC"}, "[7]": {"test_system": "Bifidobacterium bifidum (ATCC 29521)", "test": "Broth microdilution MIC, B. bifidum", "details": "ATCC29521, growth inhibited by ≥80%, read-out: MIC"}, "[8]": {"test_system": "Caco-2 (ATCC HTB 37) intestinal cancer cells", "test": "MTT cytotoxicity assay, Caco-2", "details": "Homo sapiens, Caco-2, MTT, 72 h"}, "[9]": {"test_system": "diarrheagenic bacteria (12 strains)", "test": "microbe, parasite or virus in culture", "details": "mean of 12 strains; >512 replaced with 1024; read-out: x¯ -DB ± SD: mean MIC for diarrheagenic bacteria"}, "[10]": {"test_system": "Lactobacillus rhamnosus (CCM 7091)", "test": "Broth microdilution MIC, L. rhamnosus", "details": "Lacticaseibacillus rhamnosus, CCM7091; Lactobacillus rhamnosus; growth inhibited by ≥80%; read-out: MIC"}, "[11]": {"test_system": "HT29 (ATCC HTB 38) intestinal cancer cells", "test": "MTT cytotoxicity assay, HT29", "details": "Homo sapiens, HT-29, HT29, MTT, 72 h"}, "[12]": {"test_system": "Listeria monocytogenes (ATCC 7644)", "test": "Broth microdilution MIC, L. monocytogenes", "details": "ATCC7644, growth inhibited by ≥80%, read-out: MIC"}, "[13]": {"test_system": "Clostridium perfringens (DSMZ 11778)", "test": "microbe, parasite or virus in culture", "details": "DSMZ11778"}, "[14]": {"test_system": "FHs 74 Int (ATCC CCL 241) intestinal normal cells", "test": "MTT cytotoxicity assay, FHs 74 Int", "details": "FHs74Int, 72 h, FHs 74 Int (intestinal normal cells), MTT"}, "[15]": {"test_system": "Escherichia coli (ATCC 25922)", "test": "Broth microdilution MIC, E. coli", "details": "ATCC25922, growth inhibited by ≥80%, read-out: MIC"}, "[16]": {"test_system": "intestinal cancer cells (HT29 and Caco-2)", "test": "MTT cytotoxicity assay, mean for intestinal cancer cells"}, "[17]": {"test_system": "Bacteroides fragilis (ATCC 25285)", "test": "Broth microdilution MIC, B. fragilis", "details": "ATCC25285, growth inhibited by ≥80%, read-out: MIC"}, "[18]": {"test_system": "Vibrio parahaemolyticus (ATCC 17802)", "test": "Broth microdilution MIC, V. parahaemolyticus", "details": "ATCC17802, growth inhibited by ≥80%, read-out: MIC"}, "[19]": {"test_system": "21 strains (diarrheagenic and probiotic bacteria)", "test": "organism not typed", "details": "any of the 21 strains"}, "[20]": {"test_system": "Clostridium difficile (DSMZ 12056)", "test": "microbe, parasite or virus in culture", "details": "Clostridioides difficile, DSMZ12056; Clostridium difficile; […]; read-out: MIC"}, "[21]": {"test_system": "Bifidobacterium animalis spp. lactis (DSMZ 10140)", "test": "Broth microdilution MIC, B. animalis spp. lactis", "details": "DSMZ10140; Bifidobacterium animalis spp. lactis; growth inhibited by ≥80%; read-out: MIC"}, "[22]": {"test_system": "Bifidobacterium longum ssp. longum (DSMZ 20219)", "test": "Broth microdilution MIC, B. longum ssp. longum", "details": "DSMZ20219; Bifidobacterium longum ssp. longum; growth inhibited by ≥80%; read-out: MIC"}, "[23]": {"test_system": "Bifidobacterium adolescentis (DSMZ 20087)", "test": "Broth microdilution MIC, B. adolescentis", "details": "DSMZ20087, growth inhibited by ≥80%, read-out: MIC"}, "[24]": {"test_system": "Yersinia enterocolitica (ATCC 9610)", "test": "Broth microdilution MIC, Y. enterocolitica", "details": "ATCC9610, growth inhibited by ≥80%, read-out: MIC"}, "[25]": {"test_system": "Bifidobacterium breve (ATCC 15700)", "test": "Broth microdilution MIC, B. breve", "details": "ATCC15700, growth inhibited by ≥80%, read-out: MIC"}, "[26]": {"test_system": "Enterococcus faecalis (ATCC 29212)", "test": "Broth microdilution MIC, E. faecalis", "details": "ATCC29212, growth inhibited by ≥80%, read-out: MIC"}, "[27]": {"test_system": "Salmonella enterica ssp. enterica serovar Enteritidis (ATCC 13076)", "test": "Broth microdilution MIC, Salmonella Enteritidis", "details": "Salmonella Enteritidis, growth inhibited by ≥80%, read-out: MIC"}, "[28]": {"test_system": "E. coli 0175:H7 (NCTC 12900)", "test": "microbe, parasite or virus in culture", "details": "Escherichia coli, NCTC12900"}, "[29]": {"details": "read-out: IC80 ± SD (80% inhibitory concentration of proliferation)"}}}
{"smiles": "O=S(=O)(O)c1cc(I)c(O)c2ncccc12", "note": "[FRN, 7-iodo-8-hydroxyquinoline-5-sulfonic acid]", "values": [{"measurement": "MIC", "setting": "[1]", "result": "> 512", "unit": "µg/mL"}, {"measurement": "MIC", "setting": "[2]", "result": 512, "unit": "µg/mL"}, {"measurement": "MIC", "setting": "[3]", "result": 256, "unit": "µg/mL"}, {"measurement": "MIC", "setting": "[4]", "result": "> 512", "unit": "µg/mL"}, {"measurement": "MIC", "setting": "[5]", "result": "384 ± 148", "unit": "µg/mL"}, {"measurement": "MIC", "setting": "[6]", "result": 512, "unit": "µg/mL"}, {"measurement": "MIC", "setting": "[7]", "result": 512, "unit": "µg/mL"}, {"measurement": "IC50", "setting": "[8]; read-out: IC50 ± SD", "result": "55.2 ± 4.8", "unit": "µg/mL"}, {"measurement": "IC80", "setting": "[8]; [29]", "result": "140 ± 26", "unit": "µg/mL"}, {"measurement": "MIC", "setting": "[9]", "result": "715 ± 388", "unit": "µg/mL"}, {"measurement": "MIC", "setting": "[10]", "result": 512, "unit": "µg/mL"}, {"measurement": "IC50", "setting": "[11]; read-out: IC50 ± SD", "result": "86.3 ± 12", "unit": "µg/mL"}, {"measurement": "IC80", "setting": "[11]; [29]", "result": "149 ± 6", "unit": "µg/mL"}, {"measurement": "MIC", "setting": "[12]", "result": 512, "unit": "µg/mL"}, {"measurement": "MIC", "setting": "[13]", "result": 64, "unit": "µg/mL"}, {"measurement": "IC50", "setting": "[14]; read-out: IC50 ± SD", "result": "22.6 ± 3.3", "unit": "µg/mL"}, {"measurement": "IC80", "setting": "[14]; [29]", "result": "46 ± 2.2", "unit": "µg/mL"}, {"measurement": "MIC", "setting": "[15]", "result": "> 512", "unit": "µg/mL"}, {"measurement": "IC50", "setting": "[16]; mean of HT29 and Caco-2, >512 replaced with 1024, read-out: x¯ -CC ± SD: mean IC50 for intestinal cancer cells", "result": "70.8 ± 16", "unit": "µg/mL"}, {"measurement": "IC80", "setting": "[16]; read-out: x¯ -CC ± SD: mean IC80 for intestinal cancer cells", "result": "145 ± 4.8", "unit": "µg/mL"}, {"measurement": "MIC", "setting": "[17]", "result": 128, "unit": "µg/mL"}, {"measurement": "MIC", "setting": "[18]", "result": 256, "unit": "µg/mL"}, {"measurement": "MIC", "setting": "[19]", "result": "≥ 64", "unit": "µg/mL"}, {"measurement": "MIC", "setting": "[20]", "result": 64, "unit": "µg/mL"}, {"measurement": "MIC", "setting": "[21]", "result": 512, "unit": "µg/mL"}, {"measurement": "MIC", "setting": "[22]", "result": 256, "unit": "µg/mL"}, {"measurement": "MIC", "setting": "[23]", "result": 256, "unit": "µg/mL"}, {"measurement": "MIC", "setting": "[24]", "result": "> 512", "unit": "µg/mL"}, {"measurement": "MIC", "setting": "[25]", "result": 512, "unit": "µg/mL"}, {"measurement": "MIC", "setting": "[26]", "result": "> 512", "unit": "µg/mL"}, {"measurement": "MIC", "setting": "[27]", "result": "> 512", "unit": "µg/mL"}, {"measurement": "MIC", "setting": "[28]", "result": "> 512", "unit": "µg/mL"}]}
